Measured values published in the NIST ThermoML archive (doi:10.1016/j.jct.2012.07.027).
“And” between values parts separate entries of the source, which are not always exact repeats. Equal entries are not always repeated.

Assays:
[1] = Molar enthalpy of transition or fusion; settings: Crystal; DSC
[2] = for vapor or sublimation pressure: Closed cell (Static) method; for Normal melting temperature: DTA

COC(=O)c1ccc(F)cc1 [methyl p-fluorobenzoate]
Settings	Molar enthalpy of transition or fusion [kcal/mol]
[1]	3.68

[2], Liquid
Settings	vapor or sublimation pressure
268.58 K	0.00431 kPa
270.54 K	0.00518 kPa
272.52 K	0.00628 kPa
274.49 K	0.00754 kPa
276.46 K	0.00902 kPa
278.44 K	0.01071 kPa
280.4 K	0.01279 kPa
281.87 K	0.01451 kPa
283.38 K	0.0165 kPa
285.35 K	0.0195 kPa
287.34 K	0.02314 kPa
289.34 K	0.02719 kPa
291.34 K	0.0319 kPa
293.24 K	0.03702 kPa
295.27 K	0.04353 kPa
297.28 K	0.05103 kPa
299.22 K	0.05905 kPa
301.21 K	0.06815 kPa
303.17 K	0.07895 kPa
305.16 K	0.09121 kPa and 0.09107 kPa
307.18 K	0.1051 kPa
309.2 K	0.1209 kPa
311.15 K	0.1388 kPa
313.16 K	0.1594 kPa
315.12 K	0.1817 kPa
317.15 K	0.208 kPa
319.07 K	0.2349 kPa
321.11 K	0.2685 kPa
323.09 K	0.3015 kPa
325.07 K	0.3433 kPa
327.04 K	0.3848 kPa
329.03 K	0.4342 kPa
331 K	0.4875 kPa
332.99 K	0.549 kPa
334.97 K	0.6142 kPa
336.95 K	0.6904 kPa
338.92 K	0.7681 kPa
340.9 K	0.8612 kPa and 0.8627 kPa
342.87 K	0.9546 kPa
344.85 K	1.061 kPa

Settings	Normal melting temperature [°C]
[2], Crystal	0.6

COC(=O)c1ccc(Cl)cc1 [methyl 4-chlorobenzoate]
Settings	Molar enthalpy of transition or fusion [kcal/mol]
[1]	5.09

[2]
Settings	vapor or sublimation pressure [kPa]
276.44 K, Crystal	0.00043
278.37 K, Crystal	0.00055
280.36 K, Crystal	0.00071
282.35 K, Crystal	0.00092
284.34 K, Crystal	0.00118
285.3 K, Liquid	0.00301
286.32 K, Crystal	0.00148
287.31 K, Liquid	0.00363
288.29 K, Crystal	0.00191
289.27 K, Liquid	0.00436
290.31 K, Crystal	0.00242
291.28 K, Liquid	0.0052
292.3 K, Crystal	0.00308
293.26 K, Liquid	0.00618
294.26 K, Crystal	0.00389
295.27 K, Liquid	0.00739
296.29 K, Crystal	0.00489
297.26 K, Liquid	0.00872
298.24 K, Crystal	0.00611
299.23 K, Liquid	0.01031
300.23 K, Crystal	0.00765
301.21 K, Liquid	0.01212
302.21 K, Crystal	0.00956
303.18 K, Liquid	0.01428
304.18 K, Crystal	0.01181
305.19 K, Liquid	0.01678
306.12 K, Crystal	0.01452
307.17 K, Liquid	0.01959
308.18 K, Crystal	0.01815
309.12 K, Liquid	0.02291
310.15 K, Crystal	0.0222
311.13 K, Liquid	0.02675
312.09 K, Crystal	0.02704
313.12 K, Liquid	0.0311
314.62 K, Liquid	0.03483
316.12 K, Liquid	0.03877
318.07 K, Liquid	0.0448
318.88 K, Liquid	0.04755
321.14 K, Liquid	0.05585
322.9 K, Liquid	0.06343
324.86 K, Liquid	0.07327
327.05 K, Liquid	0.084
329.03 K, Liquid	0.0959
331 K, Liquid	0.1092
332.98 K, Liquid	0.125
333.97 K, Liquid	0.1325

Settings	Normal melting temperature [°C]
[2], Crystal	41.98
